Data: US7449560B2, “Phosophoinositoglycan binding proteins” (Sanofi-Aventis Deutschland GmbH, priority 2002, dated 2008)

Columns and labels:
[1] = system: IcGce1p binding site at hcDIGs; assay: Competition of synthetic PIG(-P) with radiolabeled IcGce1p binding to hcDIGs; set-up: species or system rat
Method: (§1) 10 μl, of radiolabeled YCN-PIG or IcGce1p (60,000-80,000 dpm/nmol, final conc. 5 μM) was added to 40 μl of suspended plasma membranes, microsomes or hc/IcDIGs (40-80 μg of protein) in binding buffer in the absence or presence of unlabeled competitor (as indicated in the figure legends) in a total volume of 100 μl and incubated (30 min, 4° C.). […] After rigorous shaking (16 h, 25° C.), the radioactivity was counted in 9 ml of ACSII scintillation cocktail (Beckman). Under these conditions, sticking to the tube walls and partitioning into the oil layer of both radiolabeled YCN-PIG and IcGce1p accounted for 50-120 dpm (i.e. less than 0.5% of total radioactivity used per incubation) and therefore was not considered for calculation of binding data. […]
Radiolabeled Gce1p prepared from S. cerevisiae and treated with PI-specific PLC (B. cereus) was incubated (1 h, 4° C.) with hcDIGs (6.5 μg protein) isolated from untreated rat adipocytes in the absence or presence of unlabeled PIG-P. hcDIGs were subjected to oil-layer-centrifugation, solubilized and counted for radioactivity. […]

[2] = system: PIG(-P) receptor at hcDIGs; assay: Competition of unlabeled PIG(-P) with radiolabeled YCN-PIG binding to hcDIGs; set-up: species or system rat; conditions: for Binding affinity: hcDIGs of rat adipocytes; for efficacy in the competition assay (displacement of radiolabeled YCN-PIG from hcDIGs): unlabeled competitor
Method: (§2) 10 μl, of radiolabeled YCN-PIG or IcGce1p (60,000-80,000 dpm/nmol, final conc. 5 μM) was added to 40 μl of suspended plasma membranes, microsomes or hc/IcDIGs (40-80 μg of protein) in binding buffer in the absence or presence of unlabeled competitor (as indicated in the figure legends) in a total volume of 100 μl and incubated (30 min, 4° C.). For separation of membranes from the incubation medium, 45 μl aliquots were carefully layered over 200 μl, oil layers consisting of dibutyl phthalate and dioctyl phthalate (1/1 by vol., final density 1.012) in case of plasma membranes/microsomes or dibutyl phthalate and dinonyl phthalate (1/9 by vol., final density […]) in case of hc/IcDIGs in 0.4 ml precooled (4° C.) centrifugation tubes (microtubes no. 72.700, Sarstedt, Germany). […] After rigorous shaking (16 h, 25° C.), the radioactivity was counted in 9 ml of ACSII scintillation cocktail (Beckman). Under these conditions, sticking to the tube walls and partitioning into the oil layer of both radiolabeled YCN-PIG and IcGce1p accounted for 50-120 dpm (i.e. less than 0.5% of total radioactivity used per incubation) and therefore was not considered for calculation of binding data. Typical recoveries of plasma membranes and microsomes were 78-85% and 65-80%, respectively, and of hcDIGs and IcDIGs 83-92% and 70-78%, respectively, according to protein determination.
Radiolabeled YCN−PIG (18,000-22,000 dpm) was incubated (1 h, 4° C.) with hcDIGs (6.5 μg protein) in the absence or presence of increasing amounts of unlabeled YCN-PIG, YCN+PIG37, YMN-PIG, PIG37 and YCN (Competition). The membrane fractions/DIGs were subjected to oil-layer-centrifugation, recovered with/from the pellet/top of the oil layer, solubilized and counted for radioactivity.

IcDIGs = assay: Binding of radiolabeled YCN-PIG to IcDIGs; set-up: species or system rat; conditions: control adipocytes (no m-βCD)
Method: as §1
Radiolabeled YCN-PIG (12,000-18,000 dpm) was incubated (1 h, 4° C.) with the (proportional) amounts of hcDIGs and IcDIGs prepared from isolated rat adipocytes which had been pretreated (50 min, 30° C.) with increasing concentrations of m-βCD or left untreated. DIGs were subjected to oil-layer-centrifugation, recovered from top of the oil layer, solubilized and counted for radioactivity measured in the absence and presence of 10 μM unlabeled YCN-PIG. […]

[3] = system: PIG(-P) receptor at hcDIGs; assay: Binding of radiolabeled YCN-PIG to hcDIGs (oil-layer centrifugation, Scatchard plot); set-up: species or system rat
Method: as §2, with “determination. […]” for “determination.”
Increasing amounts of radiolabeled YCN−PIG isolated from S. cerevisiae were incubated (1 h, 4° C.) with hcDIGs (6.5 μg protein), IcDIGs (6.5 μg), plasma membranes (47.5 μg) and microsomes (68 μg) from isolated rat adipocytes. The membrane fractions/DIGs were subjected to oil-layer-centrifugation, recovered with/from the pellet/top of the oil layer, solubilized and counted for radioactivity. Specific binding was calculated as the difference between radioactivity measured in the absence and presence of 10 μM unlabeled YCN−PIG. […]

[4] = system: CIR (115 kDa polypeptide); assay: [14C]NEM-labeling and trypsin/NaCl release of CIR from rat adipocytes; assay type: cell-based; conditions: adipocytes treated before labeling
Method: For trypsin/NaCl-treatment, 2 ml of adipocyte suspension (3.5×10^6 cells/ml) in KRH containing 5 mM glucose was incubated (20 min, 30° C.) in the presence of 100 μg/ml trypsin. Soy bean trypsin inhibitor (final conc. 100 μg/ml) and 2 ml of KRH containing 1 M NaCl and 0.5% BSA were added and the incubation (10 min, 22° C.) continued. For NEM-treatment, 1 ml of adipocyte suspension (3.5×10^6 cells/ml) in KRH containing 5 mM glucose was incubated (30 min, 25° C.) with NEM (1.5 mM final conc.) and then with DTT (15 mM final conc., 5 min). After the treatments, the cells were centrifuged (1500×g, 5 min, swing-out rotor) and the infranatant removed by suction. The cell suspension left (about 0.5 ml) was supplemented with 10 ml of KRH containing 0.5% BSA and then centrifuged again (500×g, 1 min, swing-out rotor). […] Proteins of the medium contained in the lower part of the tubes were precipitated (10% TCA, two acetone washes), suspended in Laemmli sample buffer and analyzed by SDS-PAGE. […]
Phosphorimages are shown from a typical experiment repeated three times with similar results. Quantitative evaluation of four different adipocyte incubations with triplicate measurements given as arbitrary units (mean±SD) with the amount of CIR released from trypsin/NaCl-treated control cells set at 100.

Substance	Competition of IcGce1p binding [1]	Binding affinity [2]	efficacy in the competition assay (displacement of radiolabeled YCN-PIG from hcDIGs) [2]	YCN-PIG left associated with IcDIGs (IcDIGs) [%]	Bmax ([3]; Scatchard plot analysis, radiolabeled YCN-PIG)	Bmax higher vs untreated ([3]; hcDIGs from PI-specific PLC-pretreated adipocytes, Scatchard) [fold]	increase in binding of YCN-PIG to hcDIGs ([3]; hcDIGs from adipocytes pretreated with GPI-specific PL (PI-specific PLC / GPI-specific PLD)) [%]	stimulation of trypsin/NaCl-dependent release of [14C]NEM-labeled CIR [4] [%]
HO—PO(H)O-6Manα1 (Manα1-2)-2-Manα1-6Manα1-4GluN1-6Ino-1,2-(cyclic)-phosphate [PIG37]	considerably less efficient	intermediate	significantly reduced efficacy					
Tyr-Cys-Asn-NH—(CH2)2—OH [YCN]	considerably less efficient	low	very low activity					
Tyr-Cys-Asn-NH—(CH2)2—O—PO(OH)O-6Manα1-2)2Manα1-6Manα1-4GluN1-6Ino-1,2-(cyclic)-phosphate [YCN-PIG, phosphoinositolglycan-peptide derived from yeast Gce1p GPI anchor; also chemically synthesized]		highest		20	50-200 pmol per mg protein of hcDIGs	2 to 3	200	
insulin: human insulin								20
